US8865725B2, “Substituted imidazopyrimidin-5(6H)-ones as allosteric modulators of MGLUR5 receptors” (Vanderbilt University, priority 2011, dated 2014)
pEC50: −log10 of the molar value. Read-outs that look alike come from different tables or passages of the source.

Tests used:
human mGluR5a receptor = human mGluR5a receptor (Homo sapiens, UniProt P41594); assay: Cell-based functional assay (Ca2+ mobilization, FDSS) for positive allosteric modulation of mGluR5; conditions: for EC50 / pEC50: potentiation in presence of EC20 glutamate; for Emax: maximum % effect in concentration-response curve, as percent of response to maximally effective glutamate concentration
Method: The mGluR5 activity was determined using the metabotropic glutamate receptor activity assays in human embryonic kidney cells as described herein, wherein the human embryonic kidney cells were transfected with human mGluR5. The compounds in Table I were synthesized with methods identical or analogous to those shown herein. The Synthetic Route Reference indicated in Table I refers to the Reaction Scheme number described above. The requisite starting materials were commercially available, described in the literature, or readily synthesized by one skilled in the art of organic synthesis.
Human mGluR5a cDNA in pCMV6-XL6 mammalian expression plasmid was purchased from OriGene Technologies, Inc. (catalogue number SC326357) and subcloned into pcDNA3.1(−). […] Monoclones were named for the species (“H” for human) plus the location on the plate (e.g. “10H”).
HEK cells transfected with the human mGluR5a receptor (H10H or H12H cell line) were plated at 15,000 cells/well in clear-bottomed poly-D-lysine-coated assay plates (BD Falcon) in glutamate-glutamine-free growth medium and incubated overnight at 37° C. and 5% CO2. Cell-lines used were either the H10H or H12H cell-lines expressing the human mGluR5 receptor. The following day, the growth medium was removed and the cells were washed with assay buffer containing 1× Hank's balanced salt solution (Invitrogen, Carlsbad, Calif.), 20 mM HEPES, 2.5 mM probenecid, pH 7.4 and left with 20 μL of this reagent. Following this step, the cells were loaded with calcium indicator dye, fluo-4 AM, to a final concentration of 2 μM and incubated for 40-45 min at 37° C. The dye solution was removed and replaced with assay buffer. Cell plates were held for 10-15 min at room temperature and were then loaded into the Functional Drug Screening System 6000 (FDSS 6000, Hamamatsu, Japan).
After establishment of a fluorescence baseline for about 3 seconds, the compounds of the present invention were added to the cells, and the response in cells was measured. 2.3 minutes later an EC20 concentration of the mGluR5 receptor agonist glutamate was added to the cells, and the response of the cells was measured for about 1.7 minutes. All test compounds were dissolved and diluted to a concentration of 10 mM in 100% DMSO and then serially diluted into assay buffer for a 2× stock solution in 0.6% DMSO; stock compounds were then added to the assay for a final DMSO concentration of 0.3% after the first addition to the assay well. Calcium fluorescence measures were recorded as fold over basal fluorescence; raw data was then normalized to the maximal response to glutamate.
The concentration-response curves of compounds of the present invention, obtained in the presence of EC20 of mGluR5 receptor agonist glutamate to determine positive allosteric modulation, were generated using Microsoft Excel with IDBS XLfit add-ins. The raw data file containing all time points was used as the data source in the analysis template. This was saved by the FDSS as a tab-delimitted text file. Data were normalized using a static ratio function (F/F0) for each measurement of the total 350 values per well divided by each well's initial value. Data was then reduced as to peak amplitudes (Max—Initial Min) using a time range that starts approximately 1 second after the glutamate EC20 addition and continues for approximately 40 seconds. This is sufficient time to capture the peak amplitude of the cellular Calcium response. Individual amplitudes were expressed as % EMax by multiplying each amplitude by 100 and then dividing the product by the mean of the amplitudes derived from the glutamate ECMax-treated wells. pEC50 values for test compounds were generated by fitting the normalized values versus the log of the test compound concentration (in mol/L) using a 4 parameter logistic equation where none of the parameters were fixed.

[1] = HEK cells transfected with human mGluR5a (H10H or H12H), concentration in mol/L, read-out: pEC50 (converted)
[2] = HEK cells transfected with human mGluR5a (H10H or H12H), read-out: EC50
[3] = pEC50, HEK cells transfected with human mGluR5a (H10H or H12H), concentration in mol/L
[4] = EC50 (nM), HEK cells transfected with human mGluR5a (H10H or H12H)

Chain of human mGluR5a receptor (P41594 21-1180 isoform P41594-2 limits assumed): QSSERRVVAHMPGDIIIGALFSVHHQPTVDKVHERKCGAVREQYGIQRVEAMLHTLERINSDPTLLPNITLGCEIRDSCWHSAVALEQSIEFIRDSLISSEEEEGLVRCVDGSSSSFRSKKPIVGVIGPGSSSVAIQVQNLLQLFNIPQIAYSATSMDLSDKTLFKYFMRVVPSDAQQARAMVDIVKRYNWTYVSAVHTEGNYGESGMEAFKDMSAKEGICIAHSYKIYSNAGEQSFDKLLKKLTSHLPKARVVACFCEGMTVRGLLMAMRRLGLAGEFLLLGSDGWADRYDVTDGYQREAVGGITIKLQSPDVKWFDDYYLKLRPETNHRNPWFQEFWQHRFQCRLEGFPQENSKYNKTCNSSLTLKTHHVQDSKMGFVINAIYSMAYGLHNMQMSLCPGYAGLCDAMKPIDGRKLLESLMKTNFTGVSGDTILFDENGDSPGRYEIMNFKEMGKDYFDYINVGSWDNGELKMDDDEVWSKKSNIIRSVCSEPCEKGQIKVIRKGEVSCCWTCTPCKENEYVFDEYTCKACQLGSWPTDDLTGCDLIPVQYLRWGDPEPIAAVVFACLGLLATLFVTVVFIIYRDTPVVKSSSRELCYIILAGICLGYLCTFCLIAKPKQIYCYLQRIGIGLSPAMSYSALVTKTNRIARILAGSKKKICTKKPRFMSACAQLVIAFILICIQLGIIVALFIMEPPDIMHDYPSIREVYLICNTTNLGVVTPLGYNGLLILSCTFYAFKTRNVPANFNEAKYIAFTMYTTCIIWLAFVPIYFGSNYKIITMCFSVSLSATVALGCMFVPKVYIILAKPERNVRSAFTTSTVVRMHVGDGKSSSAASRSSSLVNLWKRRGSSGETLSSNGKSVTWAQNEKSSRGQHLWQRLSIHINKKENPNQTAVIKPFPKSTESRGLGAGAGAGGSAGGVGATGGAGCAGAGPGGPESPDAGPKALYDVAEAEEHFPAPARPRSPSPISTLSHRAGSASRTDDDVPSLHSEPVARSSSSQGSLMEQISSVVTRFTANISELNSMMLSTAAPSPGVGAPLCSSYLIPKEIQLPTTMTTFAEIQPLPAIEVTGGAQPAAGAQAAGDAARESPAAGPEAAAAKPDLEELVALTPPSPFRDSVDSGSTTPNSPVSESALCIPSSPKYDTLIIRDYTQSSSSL

EC50 (human mGluR5a receptor; [1])	pEC50 (human mGluR5a receptor; [2])	Emax (human mGluR5a receptor)	melting point	SMILES	pEC50 (human mGluR5a receptor; [3])	EC50 (human mGluR5a receptor; [4])
102 nM	7.01	71%	195.2 °C	O=C1N(c2ccc(F)cc2)CCc2nc(COc3ccccc3)cn21 [compound 31]	–	–
170 nM	6.73	68%	182.3 °C	O=C1N(c2ccc(F)cc2)CCc2nc(COc3ccc(F)cc3)cn21 [compound 35, 2-(4-fluoro-phenoxymethyl)-6-(4-fluoro-phenyl)-7,8-dihydro-6H-imidazo[1,2-c]pyrimidin-5-one]	–	–
–	< 4.52	16%	146.9 °C	Cc1cn(-c2ccc(F)cc2)c(=O)n2cc(COc3ccccc3)nc12 [compound 27, 6-(4-fluoro-phenyl)-8-methyl-2-phenoxymethyl-6H-imidazo[1,2-c]pyrimidin-5-one]	–	–
–	< 4.52	17%	200.1 °C	O=C1N(c2ccc(F)cc2)CCc2nc(COc3ccccc3)c(Cl)n21 [compound 42, 3-chloro-6-(4-fluoro-phenyl)-2-phenoxymethyl-7,8-dihydro-6H-imidazo[1,2-c]pyrimidin-5-one]	–	–
85.1 nM	7.11	73%	110.7 °C	O=c1n(-c2ccc(F)cc2)cc(F)c2nc(COc3ccccc3)cn12 [compound 20]	–	–
2190 nM	5.64	43%	> 300 °C	Cc1cccc(-n2ccc3nc(COc4ccccc4)cn3c2=O)n1 [compound 8]	–	–
–	< 4.52	19%	–	O=c1[nH]ccc2nc(COc3ccccc3)cn12 [compound 1, 2-phenoxymethyl-6H-imidazo[1,2-c]pyrimidin-5-one]	–	–
269 nM	6.41	79%	142.3 °C	O=c1n(-c2ccc(F)cc2)ccc2nc(COc3ccccc3)cn12 [compound 3]	–	–
–	< 4.52	20%	160.4 °C	Cc1c(COc2ccccc2)nc2n1C(=O)N(c1ccc(F)cc1)CC2 [compound 44, 6-(4-fluoro-phenyl)-3-methyl-2-phenoxymethyl-7,8-dihydro-6H-imidazo[1,2-c]pyrimidin-5-one]	–	–
1150 nM	5.88	59%	209.4 °C	Cc1ccc(-n2ccc3nc(COc4ccccc4)cn3c2=O)nc1 [compound 11]	–	–
209 nM	6.70	64%	136 °C	CN(C)c1cccc(-n2ccc3nc(COc4ccccc4)cn3c2=O)n1 [compound 24]	–	–
–	6.46	40%	165 °C	N#Cc1cccc(OCc2cn3c(=O)n(-c4ccc(F)cc4)ccc3n2)c1 [compound 13]	–	–
–	< 4.52	59%	> 300 °C	O=c1n(-c2ccc(F)cc2)ccc2nc(COc3cccnc3)cn12 [compound 19]	–	–
269 nM	6.45	61%	196.5 °C	Cc1cc(N2CCc3nc(COc4ccccc4)cn3C2=O)ncc1F [compound 40]	–	–
–	5.90	80%	122.3 °C	O=c1n(Cc2ccccc2)ccc2nc(COc3ccccc3)cn12 [compound 7]	–	–
1480 nM	5.73	49%	143.6 °C	Cc1cc2nc(COc3ccccc3)cn2c(=O)n1-c1ccc(F)cc1 [compound 28]	–	–
–	< 5.00	–	141.8 °C	O=c1n(-c2cccc(C(F)(F)F)c2)ccc2nc(COc3ccc(Cl)cc3)cn12 [compound 21]	–	–
–	< 5.00	–	189.4 °C	N#Cc1ccc(OCc2cn3c(=O)n(-c4cccc(C(F)(F)F)c4)ccc3n2)cc1 [compound 22]	–	–
–	6.24	46%	171.2 °C	COc1nccc(-n2ccc3nc(COc4ccccc4)cn3c2=O)n1 [compound 25, 6-(2-methoxy-pyrimidin-4-yl)-2-phenoxymethyl-6H-imidazo[1,2-c]pyrimidin-5-one]	–	–
–	6.31	75%	–	O=c1n(-c2ccc(F)cn2)ccc2nc(COc3ccccc3)cn12 [compound 9]	–	–
331 nM	6.49	60%	203.1 °C	Cc1cc(-n2ccc3nc(COc4ccccc4)cn3c2=O)ncc1F [compound 23]	–	–
2140 nM	5.60	66%	282.3 °C	O=c1n(-c2ccc(F)cc2)ccc2nc(COc3ccccn3)cn12 [compound 18]	–	–
204 nM	6.72	48%	169.3 °C	Cc1cccc(OCc2cn3c(n2)CCN(c2ccc(F)cc2)C3=O)c1 [compound 37, 6-(4-fluoro-phenyl)-2-m-tolyloxymethyl-7,8-dihydro-6H-imidazo[1,2-c]pyrimidin-5-one]	–	–
316 nM	6.41	64%	135 °C	O=C1N(c2ccc(F)cn2)CCc2nc(COc3ccccc3)cn21 [compound 39]	–	–
102 nM	7.01	75%	165.4 °C	O=C1N(c2ccc(F)c(F)c2)CCc2nc(COc3ccccc3)cn21 [compound 33]	–	–
–	6.53	70%	199.5 °C	Cc1nc(-n2ccc3nc(COc4ccccc4)cn3c2=O)ccc1F [compound 10]	–	–
–	6.33	63%	–	Cc1ccc(N2CCc3nc(COc4ccccc4)cn3C2=O)nc1 [compound 36, 6-(5-methyl-pyridin-2-yl)-2-phenoxymethyl-7,8-dihydro-6H-imidazo[1,2-c]pyrimidin-5-one]	–	–
–	< 4.52	17%	170.3 °C	O=c1n(-c2ccc(F)cc2)ccc2nc(COc3ccccc3)c(Cl)n12 [compound 29, 3-chloro-6-(4-fluoro-phenyl)-2-phenoxymethyl-6H-imidazo[1,2-c]pyrimidin-5-one]	–	–
513 nM	6.33	33%	–	Cc1cccc(OCc2cn3c(=O)n(-c4ccc(F)cc4)ccc3n2)c1 [compound 12]	–	–

SMILES	EC50 (human mGluR5a receptor; [1])	pEC50 (human mGluR5a receptor; [2])	Emax (human mGluR5a receptor)	melting point	pEC50 (human mGluR5a receptor; [3])	EC50 (human mGluR5a receptor; [4])
O=C1N(c2ccc(F)cc2)CCc2nc(COc3cccc(F)c3)cn21 [compound 34]	–	7.19	73%	141.1 °C	7.17	–
O=c1n(-c2cccc(F)c2)ccc2nc(COc3ccccc3)cn12 [compound 4]	–	–	68%	123.4 °C	6.29	525 nM
O=c1n(CC2CC2)ccc2nc(COc3ccccc3)cn12 [compound 17]	1050 nM	–	51%	102.1 °C	–	1100 nM
O=c1n(-c2ccc(F)cc2)ccc2nc(COc3cccc(F)c3)cn12 [compound 6]	214 nM	–	73%	141.1 °C	–	224 nM
O=c1n(-c2ccc(F)c(F)c2)ccc2nc(COc3ccccc3)cn12 [compound 5]	214 nM	–	79%	296.6 °C	–	228 nM
O=C1N(c2cccc(F)c2)CCc2nc(COc3ccccc3)cn21 [compound 32]	245 nM	–	70%	> 300 °C	–	226 nM
Cc1nc(N2CCc3nc(COc4ccccc4)cn3C2=O)ccc1F [compound 38]	–	6.78	72%	–	6.75	–
